Our source for the TGI values is PubChem BioAssay (NCI).

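All cell lines were grown in 96-well plates and treated with compound for 48 hours. Definition used: TGI = concentration required for complete inhibition of growth.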 Some results are limits rather than exact numbers.

Test systems include COLO 205 colon; M14 melanoma; MALME-3M melanoma; SK-OV-3 ovarian; KM12 colon; OVCAR-5 ovarian; NCI-H23 lung; 786-0 renal; MDA-N.
What all share (assay): inhibition of tumour cell growth, NCI panel, 48 h

As for `CN(C)CCC(C#N)(c1ccccc1)c1ccccc1`, the TGI with COLO 205 colon was over 100 µM; with M14 melanoma, 50 µM; with MALME-3M melanoma, over 100 µM; with SK-OV-3 ovarian, over 100 µM; in the experiment on KM12 colon it was over 100 µM; in the experiment with OVCAR-5 ovarian, over 100 µM. Moreover, the TGI with NCI-H23 lung, in the experiment on 786-0 renal and in the experiment on MDA-N was over 100 µM each time.

As to `CCOc1cc(NC(C)=O)ccc1C(=O)NN1C(=O)/C(=C/c2ccc(Cl)cc2)N=C1c1ccccc1`, the TGI with COLO 205 colon, with M14 melanoma, in the experiment with SK-OV-3 ovarian, in the experiment on KM12 colon, in the experiment with OVCAR-5 ovarian and with NCI-H23 lung was over 100 µM in each case. Moreover, the TGI in the experiment on 786-0 renal and with MDA-N was over 100 µM each time.

For `NC(Cc1c2ccccc2cc2ccccc12)C(=O)O` (stereo unspecified), the TGI with COLO 205 colon, in the experiment with M14 melanoma, in the experiment on MALME-3M melanoma, in the experiment with SK-OV-3 ovarian, with KM12 colon and with OVCAR-5 ovarian was over 100 µM throughout. Further, the TGI with NCI-H23 lung and in the experiment on 786-0 renal was over 100 µM in each case.

With `O=C(c1ccccc1)N1N=C(C(F)(F)F)CC1(O)C(F)(F)F` (stereo unspecified), the TGI in the experiment on COLO 205 colon, in the experiment on M14 melanoma, with MALME-3M melanoma, in the experiment with KM12 colon, with OVCAR-5 ovarian and with NCI-H23 lung was over 100 µM in each case. Further, the TGI with 786-0 renal and with MDA-N was over 100 µM in each case.

With `COC(=O)c1c(O)ccc2c1c1c(n2CCc2ccccc2)C(=O)c2ccccc2C1`, the TGI was 32.5 µM in the experiment with COLO 205 colon; 55.2 µM in the experiment with M14 melanoma; over 100 µM with MALME-3M melanoma; 64.2 µM with SK-OV-3 ovarian; over 100 µM in the experiment with KM12 colon; 74.1 µM in the experiment with NCI-H23 lung. The values for the TGI in the experiment with 786-0 renal and in the experiment with MDA-N were 37.9 µM and over 100 µM, respectively.

Regarding `CC(=O)OC1=C(c2ccccc2)S(=O)(=O)c2ccccc21`, the TGI with COLO 205 colon, with M14 melanoma, in the experiment on MALME-3M melanoma, with KM12 colon, in the experiment with OVCAR-5 ovarian and with NCI-H23 lung was over 100 µM in each case. The compound also gave a TGI in the experiment on 786-0 renal of over 100 µM.

In the case of `CC(=O)OCC1OC(Sc2nc(-c3ccccc3)c(C#N)c(=O)n2C2OC(COC(C)=O)C(OC(C)=O)C(OC(C)=O)C2OC(C)=O)C(OC(C)=O)C(OC(C)=O)C1OC(C)=O` (stereo unspecified), the TGI in the experiment with COLO 205 colon, with M14 melanoma, in the experiment on SK-OV-3 ovarian, in the experiment on KM12 colon, with OVCAR-5 ovarian and with NCI-H23 lung was over 100 µM throughout. Further, the TGI with 786-0 renal and in the experiment with MDA-N was over 100 µM each time.

As to `CCOC(=O)c1nc2ccccc2nc1Oc1ccc(F)cc1`, the TGI with COLO 205 colon, in the experiment on M14 melanoma, in the experiment with SK-OV-3 ovarian, in the experiment on KM12 colon, in the experiment on OVCAR-5 ovarian and in the experiment on 786-0 renal was over 100 µM throughout. Also, the TGI with MDA-N is over 100 µM.

Turning to `COc1ccc(N(c2ccc(C#N)cc2)c2ccc(C#N)cc2)cc1`, the TGI in the experiment on COLO 205 colon, in the experiment with M14 melanoma, with SK-OV-3 ovarian, in the experiment on KM12 colon, in the experiment on OVCAR-5 ovarian and with NCI-H23 lung was over 100 µM throughout. In addition, the TGI in the experiment on 786-0 renal and in the experiment on MDA-N was over 100 µM in each case.

Regarding `COc1nc2c(c(=O)[nH]1)N=C(c1ccc([N+](=O)[O-])cc1)CC(c1ccccc1)N2` (stereo unspecified), the TGI in the experiment with COLO 205 colon, in the experiment with M14 melanoma, in the experiment on MALME-3M melanoma, with KM12 colon, in the experiment on OVCAR-5 ovarian and with NCI-H23 lung was over 100 µM in each case. Also, the TGI in the experiment on 786-0 renal and in the experiment with MDA-N was over 100 µM in each case.

For `CC12CCC(C(=Nc3ccc([N+](=O)[O-])cc3)C1=O)C2(C)C` (stereo unspecified), the TGI was 44.6 µM with COLO 205 colon; over 100 µM in the experiment with M14 melanoma; 30 µM in the experiment on MALME-3M melanoma; over 100 µM with SK-OV-3 ovarian; 92.9 µM in the experiment with KM12 colon; over 100 µM in the experiment with OVCAR-5 ovarian. The TGI was 99.5 µM in the experiment with NCI-H23 lung and 78.5 µM in the experiment on 786-0 renal.

Take `COC(=O)[C@]1(CCC(C)=O)C(=O)C=CN([C@H](C)c2ccccc2)[C@@H]1Cc1ccc(OC)c(OCc2ccccc2)c1I`: the TGI was 47.7 µM in the experiment with COLO 205 colon; 28.2 µM with M14 melanoma; over 100 µM in the experiment with SK-OV-3 ovarian; 43.1 µM with KM12 colon; 63.8 µM in the experiment with OVCAR-5 ovarian; 49.6 µM in the experiment with NCI-H23 lung. The values for the TGI with 786-0 renal and in the experiment on MDA-N were 34.9 µM and 41.3 µM, respectively.

Take `COC(=O)C#CC1(O)C=CC(=O)C=C1`: the TGI in the experiment with M14 melanoma was 12.1 µM; in the experiment on MALME-3M melanoma it was 4.48 µM; in the experiment with SK-OV-3 ovarian it was over 100 µM; with KM12 colon it was 2.3 µM; in the experiment on OVCAR-5 ovarian, 10.4 µM; in the experiment with NCI-H23 lung it was 6.28 µM. The results for the TGI in the experiment on 786-0 renal and in the experiment on MDA-N were 1.82 µM and over 34.5 µM, respectively.

Take `Cc1cccc2c(=O)c3cccc(CC(=O)O)c3oc12`: the TGI with COLO 205 colon, in the experiment on M14 melanoma, with MALME-3M melanoma, with SK-OV-3 ovarian, in the experiment on KM12 colon and in the experiment on NCI-H23 lung was over 100 µM each time. The TGI with 786-0 renal and in the experiment with MDA-N was over 100 µM each time.

As for `CCOC(=O)c1cn2c(n1)sc1cc([N+](=O)[O-])ccc12`, the TGI in the experiment on COLO 205 colon, in the experiment with M14 melanoma, with MALME-3M melanoma, in the experiment on SK-OV-3 ovarian, in the experiment with KM12 colon and with OVCAR-5 ovarian was over 100 µM throughout. The TGI in the experiment on NCI-H23 lung and with 786-0 renal was over 100 µM throughout.

As to `O=[N+]([O-])c1cccc(-c2ccc([C@H]3CC(c4ccc(Cl)cc4)=NN3)o2)c1`, the TGI was over 100 µM with COLO 205 colon; over 100 µM with M14 melanoma; 71.6 µM in the experiment with MALME-3M melanoma; 54.5 µM with SK-OV-3 ovarian; over 100 µM with OVCAR-5 ovarian; 28.5 µM in the experiment on 786-0 renal. In the experiment with MDA-N, the TGI was 66.7 µM.
